Laboratory results published in PubChem BioAssay (NCI).
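Five concentrations, 48 hours, 96-well plates. TGI denotes the concentration required for complete inhibition of growth.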

Legend:
Test in all cases: DTP human tumour cell line panel, 48 h
[1] = tested on: DMS 273 small cell lung
[2] = tested on: MCF7 breast
[3] = tested on: SNB-19 CNS
[4] = tested on: KM12 colon
[5] = tested on: IGROV1 ovarian
[6] = tested on: NCI-H460 lung
[7] = tested on: NCI/ADR-RES ovarian
[8] = tested on: U251 CNS
[9] = tested on: SW-620 colon
[10] = tested on: HT29 colon
[11] = tested on: RXF 393 renal
[12] = tested on: A498 renal
[13] = tested on: SK-MEL-28 melanoma
[14] = tested on: SK-OV-3 ovarian
[15] = tested on: T-47D breast
[16] = tested on: OVCAR-8 ovarian
[17] = tested on: SF-539 CNS
[18] = tested on: CCRF-CEM leukemia
[19] = tested on: M14 melanoma
[20] = tested on: COLO 205 colon

CCCCCCCCCCCC(=O)OCC(C[As](=O)(O)O)OC(=O)CCCCCCCCCCC (stereo not given)
TGI [1]: 10.1 µM
TGI [2]: 13 µM
TGI [3]: 9.38 µM
TGI [4]: 21.6 µM
TGI [5]: 3.5 µM
TGI [6]: 13.3 µM
TGI [7]: 44.5 µM
TGI [8]: 2.93 µM
TGI [9]: 26.8 µM
TGI [10]: 20.2 µM
TGI [11]: 5.86 µM
TGI [12]: 17.7 µM
TGI [13]: 10.1 µM
TGI [14]: 30.1 µM
TGI [15]: 42.3 µM
TGI [16]: 24.8 µM
TGI [17]: 32 µM
TGI [18]: 30.8 µM
TGI [19]: 4.48 µM
TGI [20]: 25.4 µM

COc1cc2cc3c4cc(OC)c(OC)cc4cc[n+]3c(C)c2cc1OC (tested in a mixture with another compound)
TGI [1]: > 100 µM
TGI [2]: > 100 µM
TGI [3]: > 100 µM
TGI [4]: > 100 µM
TGI [5]: > 100 µM
TGI [6]: > 100 µM
TGI [7]: > 100 µM
TGI [8]: > 100 µM
TGI [9]: > 100 µM
TGI [10]: > 69.1 µM
TGI [11]: > 100 µM
TGI [12]: > 100 µM
TGI [13]: > 100 µM
TGI [14]: > 100 µM
TGI [15]: > 100 µM
TGI [16]: > 100 µM
TGI [17]: > 100 µM
TGI [18]: > 100 µM
TGI [19]: > 100 µM
TGI [20]: > 87.9 µM
